Publication PMC11864979, “First-in-class ultralong-target-residence-time p38α inhibitors as a mitosis-targeted therapy for colorectal cancer” (Nature Cancer, 2025)
“And” between values parts separate entries of the source, which are not always exact repeats. Identical values can stand only once.

Assays:
HCT 116 = test: cell viability in human CRC cell line HCT 116; format: cell-based; conditions: 4 d
Procedure: (§1) To generate KAP^2D cells, KAP organoids were isolated from Matrigel, fragmented by mechanical dissociation and plated without any extracellular matrix on common cell culture dishes. Phoenix-Eco packaging cells (CRL-3214), HCT-15 (CCL-225), HCT 116 (CCL-247), COLO 205 (CCL-222), LS 174T (CL-188), RKO (CRL-2577) and HT-29 (HTB-38) were obtained from the American Type Culture Collection. The cells were cultured at 37 °C and 7% CO2 with RPMI (KAP^2D cells) or DMEM (other cell lines), supplemented with 10% FBS and penicillin–streptomycin. KAP^2D cells were authenticated using PCR (Kras locus and Trp53 locus). Phoenix-Eco packaging cells and HCT-15, HCT 116, COLO 205, LS 174T, RKO and HT-29 cells were authenticated by the provider using short tandem repeat profiling. No commonly misidentified cell lines were used. Mycoplasma contamination was excluded by a PCR-based analysis.
(§2) For in vitro treatment studies, organoids were mechanically dissociated and digested using TrypLE supplemented with 100 µg ml^−1 DNaseI and 10.5 µM Y-27632 dihydrochloride (Invitrogen) at 37 °C. A total of 1,000–2,000 single cells were plated per well in white 96-well plates (Greiner) in culture medium containing 10% GFR Matrigel or Cultrex BME. The treatment with doxycycline (5 µg ml^−1), pharmacological inhibitors or corresponding volumes of DMSO was started 24 h after plating. Doxycycline was obtained from Sigma-Aldrich. […] Cell viability was measured by means of CellTiter-Glo 3D or CellTiter-Glo 2.0 reagent (Promega) according to the manufacturers’ instructions and the Infinite M Plex reader (Tecan, i-control version 3.9.1 software). Results were normalized to vehicle (DMSO) or to shNC. For cell-doubling assays, the cell number was quantified at the corresponding time points using Guava EasyCyte flow cytometer (Luminex, CytoSoft v5.2 software).

PDO7 = test: cell viability in patient-derived CRC organoids PDO7; format: cell-based, human
Procedure: as §2

HCT-15 = test: cell viability in human CRC cell line HCT-15; format: cell-based; conditions: 4 d
Procedure: as §1, §2

KAP liver metastasis = test: survival of wild-type mice with KAP liver metastasis; format: in vivo, mouse
Procedure: Subcutaneous injection, splenic seeding or cecum injection of organoids was performed in 8–10-week-old C57BL/6 N/Crl, Rag2^−/− (B6.Cg-Rag2^tm1.1Cgn/J), or CB17 Scid beige (CB17.Cg-Prkdc^scidLyst^bg-J/Crl) mice, obtained from Charles River. The organoids were dissociated into single cells, washed with PBS and injected in a 1:1 mixture of PBS and Matrigel. For murine organoids, 1 × 10^5 cells were injected into the left and right flanks or the spleen capsule and 2 × 10^6 cells were injected into the cecum wall. For human organoids, 4 × 10^5 cells were injected into the flanks of CB17 Scid beige mice. For splenic seeding and cecum injection, mice were anaesthetized using ketamine (100 mg kg^−1, intraperitoneally) and xylazin (10 mg/kg, intraperitoneally) in NaCl and a small laparotomy below the thorax was performed.
No mice were excluded during treatment studies.

KAP^2D cells = test: EdU incorporation in KAP^2D cells; format: cell-based, mouse; conditions: replicates, experiment and repetition
Procedure: Immunofluorescence staining on cells and organoids was performed on glass coverslips or tissue culture chambers (Sarstedt). Organoids were plated in medium containing 10% Matrigel or Cultrex BME. The cultures were fixed with 4% paraformaldehyde and stained with specific antibodies and DAPI (Vector Labs). All used antibodies and dilutions are listed in the Nature Portfolio Reporting Summary. For analyzing DNA synthesis, the Molecular Probes Click-iT EdU Alexa Fluor 555 kit was used 24 h after EdU incorporation with DAPI counterstaining. SA-β-Gal staining of cells was performed in cell culture dishes (cells) or tissue culture chambers (organoids) after fixation with 0.5% glutaraldehyde as described above. Human cultures were incubated with X-Gal solution at pH 6.0 for ~4 h.

PDO8 = test: cell viability in patient-derived CRC organoids PDO8; format: cell-based, human
Procedure: as §2

PDO9 = test: cell viability in patient-derived CRC organoids PDO9; format: cell-based, human
Procedure: as §2

Compound: O=C(NCCN1CCOCC1)c1ccc2c(c1)C(=O)c1ccc(Nc3ccc(F)c(NC(=O)c4ccccc4)c3)cc1CC2 [Compound 1639]
- HCT 116 Cell viability (%) (HCT 116; 1.1111 µM): 93.31% and 91.15% and 89.63% and 87.68% and 87.77%
- HCT 116 Cell viability (%) (HCT 116; 3.3333 µM): 77.27% and 77.51% and 74.83% and 76.92% and 78.08%
- HCT 116 Cell viability (%) (HCT 116; 10.0000 µM): 46.79% and 45.46% and 36.02% and 37.60% and 41.48%
- viability at 0.0137 µM (HCT 116; Homo sapiens, HCT-116, 96 h, 0.0137 µM, read-out: HCT 116 Cell viability (%)): 89.2%
- viability at 0.0412 µM (HCT 116; Homo sapiens, HCT-116, 96 h, 0.0412 µM, read-out: HCT 116 Cell viability (%)): 83.7%
- viability at 0.1235 µM (HCT 116; Homo sapiens, HCT-116, 96 h, 0.1235 µM, read-out: HCT 116 Cell viability (%)): 89%
- viability at 0.3704 µM (HCT 116; Homo sapiens, HCT-116, 96 h, 0.3704 µM, read-out: HCT 116 Cell viability (%)): 94.1%
- viability at 1.1111 µM (HCT 116; Homo sapiens, HCT-116, 96 h, 1.1111 µM): 90.8%
- viability at 3.3333 µM (HCT 116; Homo sapiens, HCT-116, 96 h, 3.3333 µM, read-out: HCT 116 Cell viability (%)): 74%
- viability at 10 µM (HCT 116; Homo sapiens, HCT-116, 96 h, 10.0000 µM): 45.5%
- viability at 1 µM (PDO7; Homo sapiens, 96 h, PDO7, 1 µM, 4 days, read-out: Cell viability (%)): 103%
- Cell viability (%) (PDO7; PDO7, 0.5 µM, 4 d, 0.5 µM): 99.28% and 131.17% and 112.30%
- Cell viability (%) (PDO7; PDO7, 1 µM, 4 days, 1 µM): 115.94% and 100.13%
- HCT-15 Cell viability (%) (HCT-15; 0.0137 µM): 92.80% and 91.50% and 85.00% and 82.22% and 80.95%
- HCT-15 Cell viability (%) (HCT-15; 0.0412 µM): 78.90% and 80.07% and 94.65% and 93.32% and 92.61%
- HCT-15 Cell viability (%) (HCT-15; 0.1235 µM): 84.07% and 87.40% and 91.28% and 90.94% and 89.46%
- HCT-15 Cell viability (%) (HCT-15; 0.3704 µM): 84.12% and 88.83% and 87.00% and 85.77% and 86.10%
- HCT-15 Cell viability (%) (HCT-15; 1.1111 µM): 77.30% and 80.39% and 72.06% and 72.72% and 71.41%
- HCT-15 Cell viability (%) (HCT-15; 3.3333 µM): 62.02% and 64.03% and 55.98% and 56.04% and 55.89%
- HCT-15 Cell viability (%) (HCT-15; 10.0000 µM): 36.90% and 37.04% and 27.63% and 27.72% and 28.84%
- viability at 0.0137 µM (HCT-15; Homo sapiens, HCT-15, 96 h, 0.0137 µM, read-out: HCT-15 Cell viability (%)): 95.1%
- viability at 0.0412 µM (HCT-15; Homo sapiens, HCT-15, 96 h, 0.0412 µM, read-out: HCT-15 Cell viability (%)): 77.5%
- viability at 0.1235 µM (HCT-15; Homo sapiens, HCT-15, 96 h, 0.1235 µM, read-out: HCT-15 Cell viability (%)): 82.6%
- viability at 0.3704 µM (HCT-15; Homo sapiens, HCT-15, 96 h, 0.3704 µM, read-out: HCT-15 Cell viability (%)): 80.4%
- viability at 1.1111 µM (HCT-15; Homo sapiens, HCT-15, 96 h, 1.1111 µM, read-out: HCT-15 Cell viability (%)): 74%
- viability at 3.3333 µM (HCT-15; Homo sapiens, HCT-15, 96 h, 3.3333 µM, read-out: HCT-15 Cell viability (%)): 56.5%
- viability at 10 µM (HCT-15; Homo sapiens, HCT-15, 96 h, 10.0000 µM, read-out: HCT-15 Cell viability (%)): 36.6%
- survival / therapeutic efficacy in KAP liver metastasis (in words) (KAP liver metastasis; 20 mg kg^−1 daily, start 5 weeks after organoid inoculation): slight but nonsignificant survival benefit
- Survival (KAP liver metastasis; single animals, 1 = event, 0 = censored, Fig. 6e): 26 d of treatment and 29 d of treatment and 11 d of treatment and 12 d of treatment and 25 d of treatment and 27 d of treatment and 20 d of treatment
- EdU+ cells (KAP^2D cells; Fig. 4j): 87.08% and 89.84% and 80.20% and 80.71% and 77.64% and 85.43% and 87.34% and 80.43%
- EdU+ cells (KAP^2D cells; Fig. 5b): 16.24% and 18.58% and 17.71% and 16.69% and 15.27% and 21.79% and 19.62% and 11.52%
- viability at 0.5 µM (PDO8; Homo sapiens, 96 h, PDO8, 0.5 µM, 4 d): 82.7%
- Cell viability (%) (PDO8; PDO8, 0.5 µM, 4 d, 0.5 µM): 82.90% and 74.01%
- Cell viability (%) (PDO8; PDO8, 1 µM, 4 days, 1 µM): 84.53% and 69.94% and 45.12%
- viability at 1 µM (PDO9; Homo sapiens, 96 h, PDO9, 1 µM, 4 days): 76.2%
- Cell viability (%) (PDO9; PDO9, 0.5 µM, 4 d, 0.5 µM): 87.86% and 110.04% and 106.00%
- Cell viability (%) (PDO9; PDO9, 1 µM, 4 days, 1 µM): 91.05% and 91.07%
